The values that follow are results of earlier work, collected in US9526701B2, “Sustained drug release and improved product stability using non-covalent particle coating methods” (priority 2011, dated 2016).

Each structure is given as a SMILES string.

For the data set the following is noted: for half life in the blood: following administration; for bioavailability: oral administration.

Take `N[C@@H](Cc1cc(I)c(Oc2cc(I)c(O)c(I)c2)c(I)c1)C(=O)O` [Example T4, 3,5,3′,5′-tetraiodo-L-thyronine]: the “half life in the blood” value is given as “greater than 7 days” and the bioavailability is 45-65%.
Regarding `N[C@@H](Cc1cc(I)c(Oc2ccc(O)c(I)c2)c(I)c1)C(=O)O` [Example T3, 3,5,3′-triiodo-L-thyronine], the “half life in the blood” value is 20 to 30 h and the bioavailability entry is recorded as “greater than 95%”.
